Assay results from ChEMBL document CHEMBL5465560, “Selectivity Literature for EUbOPEN Chemogenomic Library” (2024).

Columns and labels:
[1] = target: Casein kinase I isoform alpha (Homo sapiens, UniProt P48729); assay: Selectivity interaction (Enzymatic assay) EUB0001199aCl CSNK1A1
[2] = target: Epithelial discoidin domain-containing receptor 1 (Homo sapiens) (UniProt Q08345); assay: Selectivity interaction (KinomeScan (DiscoverX)) EUB0001079a DDR1; conditions: at 1 µM
[3] = target: T1, Serine/threonine-protein kinase Nek9 (Homo sapiens) (UniProt Q8TD19); assay: Selectivity interaction (KinomeScan (DiscoverX)) EUB0001079a NEK9; conditions: at 1 µM
T1 sequence (whole entry): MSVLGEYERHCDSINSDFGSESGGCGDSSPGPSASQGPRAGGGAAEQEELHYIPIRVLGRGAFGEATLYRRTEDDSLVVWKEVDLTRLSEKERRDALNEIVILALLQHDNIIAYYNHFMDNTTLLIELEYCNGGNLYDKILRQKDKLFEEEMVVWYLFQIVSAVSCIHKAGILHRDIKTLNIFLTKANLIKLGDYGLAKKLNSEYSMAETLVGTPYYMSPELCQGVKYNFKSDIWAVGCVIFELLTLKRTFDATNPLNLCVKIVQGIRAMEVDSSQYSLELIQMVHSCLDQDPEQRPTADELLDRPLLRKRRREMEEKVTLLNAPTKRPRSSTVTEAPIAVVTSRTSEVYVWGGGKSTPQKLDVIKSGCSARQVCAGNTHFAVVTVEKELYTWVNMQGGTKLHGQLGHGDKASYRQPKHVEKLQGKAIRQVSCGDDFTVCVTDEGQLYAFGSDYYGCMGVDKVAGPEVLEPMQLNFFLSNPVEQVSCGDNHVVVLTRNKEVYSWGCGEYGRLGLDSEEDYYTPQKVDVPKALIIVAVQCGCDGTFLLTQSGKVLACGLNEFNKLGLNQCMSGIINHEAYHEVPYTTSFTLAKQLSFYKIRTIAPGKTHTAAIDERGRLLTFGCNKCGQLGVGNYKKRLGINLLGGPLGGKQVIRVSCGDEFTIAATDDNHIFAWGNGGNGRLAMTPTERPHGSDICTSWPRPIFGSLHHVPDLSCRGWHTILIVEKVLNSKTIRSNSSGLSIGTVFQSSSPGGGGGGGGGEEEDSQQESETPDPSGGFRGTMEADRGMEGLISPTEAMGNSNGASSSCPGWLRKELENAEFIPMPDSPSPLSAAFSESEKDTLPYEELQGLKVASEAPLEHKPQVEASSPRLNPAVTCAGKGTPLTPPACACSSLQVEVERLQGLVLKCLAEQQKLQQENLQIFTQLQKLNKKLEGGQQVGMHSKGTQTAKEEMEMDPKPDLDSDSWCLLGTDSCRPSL

[4] = target: T2, Dual specificity mitogen-activated protein kinase kinase 4 (Homo sapiens) (UniProt P45985); assay: Selectivity interaction (ActivX KiNativ screen (kinase selectivity in THP-1 cell lysates)) EUB0000639a MAP2K4; format: subcellular; conditions: lysate, at 0.2 µM
T2 sequence (whole entry): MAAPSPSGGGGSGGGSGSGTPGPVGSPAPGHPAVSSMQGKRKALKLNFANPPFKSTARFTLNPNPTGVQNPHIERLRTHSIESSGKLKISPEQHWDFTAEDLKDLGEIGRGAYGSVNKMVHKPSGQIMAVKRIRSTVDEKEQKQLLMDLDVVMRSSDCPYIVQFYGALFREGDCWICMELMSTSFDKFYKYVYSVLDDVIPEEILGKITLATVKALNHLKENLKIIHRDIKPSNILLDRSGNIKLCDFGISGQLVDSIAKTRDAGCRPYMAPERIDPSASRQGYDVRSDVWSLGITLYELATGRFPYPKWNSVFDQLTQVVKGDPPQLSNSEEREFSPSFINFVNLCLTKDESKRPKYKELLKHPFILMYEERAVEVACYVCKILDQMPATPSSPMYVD

[5] = target: Serine/threonine-protein kinase Nek7 (Homo sapiens) (UniProt Q8TDX7); assay: Selectivity interaction (ActivX KiNativ screen (kinase selectivity in THP-1 cell lysates)) EUB0000639a NEK7; format: subcellular; conditions: lysate, at 1 µM
[6] = target: Serine/threonine-protein kinase B-raf (Homo sapiens) (UniProt P15056); assay: Selectivity interaction (ActivX KiNativ screen (kinase selectivity in THP-1 cell lysates)) EUB0000639a BRAF; format: subcellular; conditions: lysate
[7] = target: Myosin light chain kinase 2, skeletal/cardiac muscle (Homo sapiens) (UniProt Q9H1R3); assay: Selectivity interaction (Ambit KINOMEscan and KiNATiv profiling in Jurkat cells) EUB0000090b MYLK2; format: cell-based; conditions: at 1 µM
[8] = target: Ribosomal protein S6 kinase alpha-2 (Homo sapiens) (UniProt Q15349); assay: Selectivity interaction (KinomeScan (DiscoverX)) EUB0000045b RPS6KA2; conditions: at 1 µM
[9] = tested on: Epidermal growth factor receptor (Homo sapiens), P00533 [UNDEFINED MUTATION]; assay: Selectivity interaction (KinomeScan (DiscoverX)) EUB0000618a EGFR; conditions: at 10 µM
[10] = target: Receptor-interacting serine/threonine-protein kinase 2 (Homo sapiens, UniProt O43353); conditions: at 10 µM
[11] = target: Interferon-induced, double-stranded RNA-activated protein kinase (Homo sapiens) (UniProt P19525); assay: Selectivity interaction (KinomeScan (DiscoverX)) EUB0001619a EIF2AK2; conditions: at 1 µM
[12] = target: T3, Serine/threonine-protein kinase ICK (Homo sapiens) (UniProt Q9UPZ9); assay: Selectivity interaction (KinomeScan (DiscoverX)) EUB0000607a ICK; conditions: at 10 µM
T3 sequence (whole entry): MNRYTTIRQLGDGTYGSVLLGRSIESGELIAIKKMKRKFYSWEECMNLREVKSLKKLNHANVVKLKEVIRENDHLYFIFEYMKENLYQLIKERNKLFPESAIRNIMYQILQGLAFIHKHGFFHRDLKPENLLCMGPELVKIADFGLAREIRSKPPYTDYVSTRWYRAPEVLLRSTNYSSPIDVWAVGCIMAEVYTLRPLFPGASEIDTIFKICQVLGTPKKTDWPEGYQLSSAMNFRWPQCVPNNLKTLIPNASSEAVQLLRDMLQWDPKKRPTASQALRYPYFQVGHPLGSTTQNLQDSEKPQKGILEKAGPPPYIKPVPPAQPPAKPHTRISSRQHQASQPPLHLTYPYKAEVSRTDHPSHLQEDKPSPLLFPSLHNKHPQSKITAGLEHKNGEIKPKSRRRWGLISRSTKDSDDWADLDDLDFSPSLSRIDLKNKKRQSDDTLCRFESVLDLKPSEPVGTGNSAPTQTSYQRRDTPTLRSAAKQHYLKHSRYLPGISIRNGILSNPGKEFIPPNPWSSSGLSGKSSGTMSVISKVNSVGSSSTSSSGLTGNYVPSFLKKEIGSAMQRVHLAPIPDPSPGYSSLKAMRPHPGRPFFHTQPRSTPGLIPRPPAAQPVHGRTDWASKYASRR

[13] = target: Tyrosine-protein kinase receptor Tie-1 (Homo sapiens) (UniProt P35590); assay: Selectivity interaction (KinomeScan (DiscoverX)) EUB0001868a TIE1; conditions: at 1 µM
Tyrosine-protein kinase receptor Tie-1 (Homo sapiens), sequence (P35590 whole entry): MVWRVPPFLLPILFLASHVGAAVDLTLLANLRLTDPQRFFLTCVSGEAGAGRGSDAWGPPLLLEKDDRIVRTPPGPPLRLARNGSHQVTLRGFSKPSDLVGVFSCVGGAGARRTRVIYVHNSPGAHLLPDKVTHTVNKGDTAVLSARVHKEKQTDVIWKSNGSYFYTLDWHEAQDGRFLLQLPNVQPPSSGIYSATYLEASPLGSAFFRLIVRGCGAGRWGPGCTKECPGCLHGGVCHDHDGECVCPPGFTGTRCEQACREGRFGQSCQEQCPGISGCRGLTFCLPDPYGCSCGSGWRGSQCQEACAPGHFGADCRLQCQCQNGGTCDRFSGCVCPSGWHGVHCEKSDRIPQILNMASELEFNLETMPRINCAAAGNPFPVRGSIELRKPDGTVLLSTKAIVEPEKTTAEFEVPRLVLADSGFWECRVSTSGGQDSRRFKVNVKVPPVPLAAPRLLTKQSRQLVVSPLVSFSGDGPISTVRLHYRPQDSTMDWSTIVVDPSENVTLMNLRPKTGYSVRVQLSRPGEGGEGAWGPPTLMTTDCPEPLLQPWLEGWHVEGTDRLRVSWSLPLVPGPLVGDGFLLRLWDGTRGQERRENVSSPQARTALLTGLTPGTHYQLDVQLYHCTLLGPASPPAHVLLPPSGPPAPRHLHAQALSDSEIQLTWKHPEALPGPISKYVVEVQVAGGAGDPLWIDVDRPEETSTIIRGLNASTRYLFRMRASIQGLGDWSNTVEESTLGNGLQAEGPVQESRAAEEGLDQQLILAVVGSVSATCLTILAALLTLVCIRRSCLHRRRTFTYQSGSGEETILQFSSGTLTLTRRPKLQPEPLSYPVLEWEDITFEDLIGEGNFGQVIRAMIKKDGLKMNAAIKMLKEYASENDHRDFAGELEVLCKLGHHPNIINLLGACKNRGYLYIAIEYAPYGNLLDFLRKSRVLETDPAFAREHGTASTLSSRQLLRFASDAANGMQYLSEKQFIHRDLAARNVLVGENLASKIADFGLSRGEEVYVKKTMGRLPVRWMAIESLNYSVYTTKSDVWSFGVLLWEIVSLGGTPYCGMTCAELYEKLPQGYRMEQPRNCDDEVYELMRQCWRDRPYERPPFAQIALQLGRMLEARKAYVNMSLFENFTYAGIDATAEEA

Serine/threonine-protein kinase B-raf (Homo sapiens), sequence (P15056 whole entry): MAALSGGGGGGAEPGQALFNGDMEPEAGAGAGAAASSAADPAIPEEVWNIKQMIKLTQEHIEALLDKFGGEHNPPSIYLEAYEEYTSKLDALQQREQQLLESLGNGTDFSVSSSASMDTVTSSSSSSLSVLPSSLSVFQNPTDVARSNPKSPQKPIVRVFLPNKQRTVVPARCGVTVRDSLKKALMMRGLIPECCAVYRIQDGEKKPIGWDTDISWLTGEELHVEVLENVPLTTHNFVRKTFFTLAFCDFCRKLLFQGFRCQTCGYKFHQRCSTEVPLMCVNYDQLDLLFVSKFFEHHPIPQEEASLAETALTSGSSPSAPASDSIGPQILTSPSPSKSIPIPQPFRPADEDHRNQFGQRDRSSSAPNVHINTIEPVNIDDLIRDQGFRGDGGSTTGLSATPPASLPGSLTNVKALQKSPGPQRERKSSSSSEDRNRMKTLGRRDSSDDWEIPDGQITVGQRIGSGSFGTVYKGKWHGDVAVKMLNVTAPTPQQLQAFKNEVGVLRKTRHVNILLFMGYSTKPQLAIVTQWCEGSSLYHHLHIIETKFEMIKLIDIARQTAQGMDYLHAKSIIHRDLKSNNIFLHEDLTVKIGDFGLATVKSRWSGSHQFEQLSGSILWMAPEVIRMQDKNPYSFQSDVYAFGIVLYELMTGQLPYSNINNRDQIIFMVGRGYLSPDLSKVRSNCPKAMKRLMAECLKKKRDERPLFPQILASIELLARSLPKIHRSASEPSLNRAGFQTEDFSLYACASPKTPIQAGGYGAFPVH
Serine/threonine-protein kinase Nek7 (Homo sapiens), sequence (Q8TDX7 whole entry, looked up): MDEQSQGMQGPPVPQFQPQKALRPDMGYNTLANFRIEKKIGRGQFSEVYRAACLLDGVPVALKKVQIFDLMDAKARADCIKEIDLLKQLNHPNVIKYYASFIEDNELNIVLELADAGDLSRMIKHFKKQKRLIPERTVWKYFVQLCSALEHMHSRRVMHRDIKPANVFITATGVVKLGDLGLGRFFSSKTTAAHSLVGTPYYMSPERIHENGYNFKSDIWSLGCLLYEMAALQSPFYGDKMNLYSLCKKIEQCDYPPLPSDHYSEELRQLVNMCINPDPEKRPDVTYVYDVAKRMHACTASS
Ribosomal protein S6 kinase alpha-2 (Homo sapiens), sequence (Q15349 whole entry): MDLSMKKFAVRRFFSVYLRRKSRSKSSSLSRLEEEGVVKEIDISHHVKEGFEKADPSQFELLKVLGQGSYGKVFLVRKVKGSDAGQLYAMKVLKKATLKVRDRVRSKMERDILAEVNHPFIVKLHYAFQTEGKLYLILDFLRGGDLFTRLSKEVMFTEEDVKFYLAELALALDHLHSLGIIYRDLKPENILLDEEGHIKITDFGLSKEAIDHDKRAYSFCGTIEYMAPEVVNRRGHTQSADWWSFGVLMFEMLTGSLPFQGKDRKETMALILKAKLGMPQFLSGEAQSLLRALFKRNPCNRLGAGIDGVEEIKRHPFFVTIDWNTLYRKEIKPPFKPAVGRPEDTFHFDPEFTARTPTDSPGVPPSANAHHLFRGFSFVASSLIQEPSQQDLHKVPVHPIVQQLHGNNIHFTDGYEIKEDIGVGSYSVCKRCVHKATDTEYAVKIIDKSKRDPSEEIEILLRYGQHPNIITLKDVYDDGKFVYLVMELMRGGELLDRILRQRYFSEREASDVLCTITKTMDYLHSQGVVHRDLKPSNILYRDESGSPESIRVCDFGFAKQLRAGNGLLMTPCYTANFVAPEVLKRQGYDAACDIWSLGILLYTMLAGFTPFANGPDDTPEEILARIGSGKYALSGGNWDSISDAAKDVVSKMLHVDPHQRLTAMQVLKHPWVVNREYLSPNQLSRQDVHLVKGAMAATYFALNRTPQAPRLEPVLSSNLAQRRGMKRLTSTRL
Casein kinase I isoform alpha, sequence (P48729 whole entry, the tested form may be a part, canonical isoform): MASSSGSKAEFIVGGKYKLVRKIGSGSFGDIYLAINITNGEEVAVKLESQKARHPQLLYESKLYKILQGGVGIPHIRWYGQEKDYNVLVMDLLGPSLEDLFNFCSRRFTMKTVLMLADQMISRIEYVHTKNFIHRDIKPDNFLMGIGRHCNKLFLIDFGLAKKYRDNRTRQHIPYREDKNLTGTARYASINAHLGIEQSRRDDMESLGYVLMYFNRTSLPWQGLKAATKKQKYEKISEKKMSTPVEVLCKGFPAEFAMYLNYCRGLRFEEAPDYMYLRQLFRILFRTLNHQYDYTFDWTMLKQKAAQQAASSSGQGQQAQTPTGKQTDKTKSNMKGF
Epithelial discoidin domain-containing receptor 1 (Homo sapiens), sequence (Q08345 whole entry, the tested form may be a part): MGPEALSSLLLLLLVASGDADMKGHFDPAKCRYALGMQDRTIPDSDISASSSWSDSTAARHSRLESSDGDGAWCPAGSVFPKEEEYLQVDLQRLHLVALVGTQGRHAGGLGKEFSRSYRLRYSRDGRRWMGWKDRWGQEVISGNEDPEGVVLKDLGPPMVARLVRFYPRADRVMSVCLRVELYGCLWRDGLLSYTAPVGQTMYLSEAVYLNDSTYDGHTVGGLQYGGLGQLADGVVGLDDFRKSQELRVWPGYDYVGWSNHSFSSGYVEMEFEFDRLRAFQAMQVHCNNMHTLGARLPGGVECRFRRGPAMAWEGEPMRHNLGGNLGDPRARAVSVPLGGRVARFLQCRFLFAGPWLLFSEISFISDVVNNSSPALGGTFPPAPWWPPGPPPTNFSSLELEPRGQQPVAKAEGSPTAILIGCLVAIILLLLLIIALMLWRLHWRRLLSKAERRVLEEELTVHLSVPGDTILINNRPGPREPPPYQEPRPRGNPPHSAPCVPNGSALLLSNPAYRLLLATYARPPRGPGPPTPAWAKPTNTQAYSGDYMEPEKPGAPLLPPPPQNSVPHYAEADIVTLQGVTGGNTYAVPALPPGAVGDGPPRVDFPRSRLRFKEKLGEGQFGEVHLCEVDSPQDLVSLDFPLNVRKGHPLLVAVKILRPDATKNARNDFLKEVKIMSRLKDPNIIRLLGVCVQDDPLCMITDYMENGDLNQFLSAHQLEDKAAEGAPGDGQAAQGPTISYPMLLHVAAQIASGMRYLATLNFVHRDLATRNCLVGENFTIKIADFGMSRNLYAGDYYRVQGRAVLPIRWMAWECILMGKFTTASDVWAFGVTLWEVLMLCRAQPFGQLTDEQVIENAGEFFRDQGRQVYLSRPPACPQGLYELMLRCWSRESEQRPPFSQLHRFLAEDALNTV
Myosin light chain kinase 2, skeletal/cardiac muscle (Homo sapiens), sequence (Q9H1R3 whole entry): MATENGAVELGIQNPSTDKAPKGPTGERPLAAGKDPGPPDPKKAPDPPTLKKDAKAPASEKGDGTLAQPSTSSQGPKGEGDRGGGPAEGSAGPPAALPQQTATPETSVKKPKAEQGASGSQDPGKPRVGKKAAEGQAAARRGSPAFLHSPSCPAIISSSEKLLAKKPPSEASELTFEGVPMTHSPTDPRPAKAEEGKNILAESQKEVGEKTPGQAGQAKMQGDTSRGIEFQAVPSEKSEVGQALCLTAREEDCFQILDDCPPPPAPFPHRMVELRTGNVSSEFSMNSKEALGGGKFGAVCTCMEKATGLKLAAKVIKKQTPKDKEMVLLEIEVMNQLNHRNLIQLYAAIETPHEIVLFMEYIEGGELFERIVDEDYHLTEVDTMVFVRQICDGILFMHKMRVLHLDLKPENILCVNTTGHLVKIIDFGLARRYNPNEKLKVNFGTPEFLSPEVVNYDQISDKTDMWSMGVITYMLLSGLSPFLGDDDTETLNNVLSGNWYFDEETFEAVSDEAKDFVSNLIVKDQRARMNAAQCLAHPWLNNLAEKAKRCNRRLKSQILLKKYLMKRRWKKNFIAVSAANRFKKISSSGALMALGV

Compound: CN1Cc2nccc(-c3cn(C)nc3-c3ccc(F)cc3)c2C1=O
- IC50 [1]: 630 nM

Compound: Nc1cnc(N2CCc3cc(S(=O)(=O)Nc4c(F)cc(Cl)cc4F)cc(N4CCCC4=O)c32)nc1 [TP-020n]
- % of control [2]: 100%
- % of control [3]: 98%

Compound: CC[C@@H]1[C@H](F)C(=O)N[C@@H]1COc1nccc2cc(C(N)=O)c(OC)cc12 [ZIMLOVISERTIB]
- % of inhibition [4]: 15.8%
- % of inhibition [5]: 2%
- % of inhibition ([6]; at 0.01 µM): 7.3%
- % of inhibition ([6]; at 0.04 µM): 15.4%
- % of inhibition ([6]; at 0.2 µM): -0.2%
- % of inhibition ([6]; at 1 µM): -0.4%
- % of inhibition ([6]; at 5 µM): -15.5%

Compound: CN(C)C/C=C/C(=O)Nc1ccc(C(=O)N2CCCC(Nc3ncc(Cl)c(-c4c[nH]c5ccccc45)n3)C2)cc1 (configuration not stated)
- % of control [7]: 91%

Compound: C=CC(=O)Nc1cc(-n2c(=O)ccc3cnc4ccc(-c5ccc(NS(C)(=O)=O)cc5)cc4c32)ccc1C
- % of control [8]: 90%

Compound: O[C@H]1CC[C@H](Nc2ncc3nc(Nc4c(F)cc(F)cc4F)n([C@H]4CCOC4)c3n2)CC1
- % of control [9]: 9.4%

Compound: Cc1cc([C@@H](C)Nc2ccccc2C(=O)O)c2nc(N3CCOCC3)cc(=O)n2c1 [AZD-6482]
- % of control [10]: 94%

Compound: N#Cc1cccc(-c2c[nH]c3ncnc(N4CCOCC4)c23)c1
- % of control [11]: 100%

Compound: CNC(=O)Nc1ccc(-c2nc(N3CC4CCC(C3)O4)c3cnn(C4CCC5(CC4)OCCO5)c3n2)cc1
- % of control [12]: 87%

Compound: Cc1cc(-c2ccnc(Nc3cnn(C)c3)n2)ccc1CNC(=O)N1CC(OC(C)C)C1
- % of control [13]: 46%
